In patent US4288609A, “Quaternary ammonium derivatives of adamantane with antimicrobic activity” (priority 1976, dated 1981):

Columns and labels:
Pseudomonas Aeruginosa = test: Antibacterial activity in vivo with topical treatment (Table 5); set-up: species or system female CF1 albino mice; conditions: for animals alive on the 15th day / animals dead on the 15th day: 10 animals; for % survivors: topical, 15th day
Experimental: After their backs have been shaved, female CF1 albino mice weighing 18-22 g are scorched (under ether anaesthetic) for 15 seconds with a pad of brass previously immersed in boiling water (7-8% of the body surface). After 90 minutes there is applied to the scorched area 0.1 ml of a suspension of Pseudomonas Aeruginosa bacteria having 15% transmittance at 650 nm. The bacterial strain in question produces a high incidence of mortality, induced by septicemic diffusion from the point of infection. After 90 minutes, with the aid of a glass rod suitably flattened at one end, the preparation containing a known concentration of the compound under examination is applied locally. The treatment is continued for a total of six days (once per day). On the fifteenth day the percentage of survivors to the tested doses in recorded.
The carrier used for applying the compounds under examination is an aqueous 0.75% solution of carboxymethyl-cellulose. The concentrations of the compounds tested are 2, 1, 0.5 and 0.25% by weight.

Staph.Aureus Tour = test: M.I.C. in vitro, gram+ Staph. Aureus (Table 1); assay type: cell-based, Staphylococcus Aureus; conditions: Staphylococcus aureus
Experimental: (§1) The method for evaluating the activity in vitro against bacteria, fungi and protozoa consists in introducing calculated quantities of the substance, the activity of which it is desired to test, into culture media already inoculated with a predetermined number of test germs.
(§2) After 24 or 48 hours of incubation at 30° or 37° C., according to the micro-organism being tested, it is possible to evaluate the growth of the same in the culture broth; in this manner the minimum concentration (M.I.C.) which inhibits the growth of the micro-organisms in vitro is determined.
(§3) In table 1 there are recorded the M.I.C. values in γ/ml of the products subject of the present invention, against certain gram+ and gram- bacterial strains, some of which are pathogenic towards human beings.

Pseudom.Aer. ATCC 1014 = test: M.I.C. in vitro, gram- Pseudom. Aer. (Table 1); assay type: cell-based, Pseudomonas Aeruginosa; conditions: Pseudomonas aeruginosa
Experimental: as §1, §2, §3

[1] = system: Escherichia Coli SKF 12140; test: Speed of sterilising action, Escherichia Coli (Table 3); assay type: cell-based
Experimental: (§4) The strains, inoculants, culture broths and experimental methods are as already seen for calculating the M.I.C. in vitro. The antimicrobic substances were tested at concentrations of 0.1, 0.25, 0.5 and 1 g/l, the contact times taken into consideration are 0, 1, 2.5, 5, 7.5, 10, 15, 30 and 60 minutes.
(§5) The samples which at the 7th day of incubation still had no growth of micro-organisms which could be observed macroscopically and/or microscopically were considered sterile.
(§6) The results are recorded in Table 3 in terms of sterilization time expressed in minutes.

[2] = system: Staphylococcus Aureus Tour; test: Speed of sterilising action, Staphylococcus Aureus (Table 3); assay type: cell-based
Experimental: as §4, §5, §6

[3] = system: Trichophyton Mentagrophytes Ist. Pasteur; test: Speed of sterilising action, Trichophyton Mentagrophytes (Table 3); assay type: cell-based
Experimental: as §4, §5, §6

Diplococcus Pneum. ISM = test: M.I.C. in vitro, gram+ Diplococcus Pneum. (Table 1); assay type: cell-based
Experimental: as §1, §2, §3

[4] = system: Candida Albicans SKF 2270; test: Speed of sterilising action, Candida Albicans (Table 3); assay type: cell-based
Experimental: as §4, §5, §6

Esch. Coli. SKF 12140 = test: M.I.C. in vitro, gram- Esch. Coli (Table 1); assay type: cell-based, Escherichia Coli; conditions: Escherichia coli
Experimental: as §1, §2, §3

[5] = system: Trichomonas Vaginalis ISM 66/22; test: Speed of sterilising action, Trichomonas Vaginalis (Table 3); assay type: cell-based
Experimental: as §4, §5, §6

[6] = system: Streptococ. Henclyt. 0203; test: M.I.C. in vitro, gram+ Streptococ. Henclyt. (Table 1); assay type: cell-based
Experimental: as §1, §2, §3

Candida albicans = test: Activity upon vaginal candidiasis in mice (Table 7); assay type: in vivo, female Swiss mice (Charles River CD1); conditions: for no. of animals surviving: 8 animals
Experimental: The treatment groups consist each of 8 female Swiss mice (Charles River CD1) of average weight 20 g. The animals are infected with 0.025 ml of a 24 hour culture of Candida albicans, equal to 10^6 cellules.
0.025 ml of a suspension in lanoline of the compound to be tested, at the desired concentration, are applied locally twice a day for a week, the first treatment being started five hours after infection.
The control group is treated with the lanoline alone in the same way. On the eighth day vaginal washings are carried out with 0.025 ml of sterile physiological solution, and the liquid is sown in Petri dishes containing Bacto Biggy Agon Difco as a selective growing medium for the Candida.
After 48 hours of incubation of the dishes at 30° C. a count is taken of the colonies which have grown. Assessment of the activity is quantized using the indices listed here below:
The results are expressed as percentages of the average index of seriousness of the infection A.D.I. (Average Degree of Infection) in the animals treated with respect to the animals in the control group.
The substances under examination were tested at concentrations of 5 and 3% by weight.

[7] = Acute oral toxicity in mice (Table 4); conditions: mouse, in vivo, po
Experimental: The substances were administered orally to groups of 10 female mice CF1 of average weight of about 20 grams, in aqueous solution and in such way that the total volume administered would be in each case 1 ml/100 g of weight.

Klens. Pneum. ISM = test: M.I.C. in vitro, gram- Klens. Pneum. (Table 1); assay type: cell-based
Experimental: as §1, §2, §3

[8] = system: Trichophyton Mentagrophytes; test: Topical activity upon dermatophytis from Trichophyton in cavies (Table 6); assay type: in vivo, Albino cavies
Experimental: Albino cavies of 250-300 g are infected, after depilation and scarification of a circular area of dorsal skin upon which there are supplied 0.1 ml of a suspension of microconidia of Trichophyton Mentagrophytes from the Pasteur Institute collection, obtained from a culture of 15 days upon Saboureaud agar. 24 Hours after infection topical treatment is started and is continued for two weeks (once per day).
The compounds to be tested are dissolved or suspended at the desired concentration, in a water-alcohol mixture (75/25 v/v) containing 0.75% by weight of carboxymethyl-cellulose (CMC). […] Each single application is carried out using 0.25 ml of the suspension or solution obtained as described above.
Fourteen days after infection the lesions are assessed. Assessment is carried out by attributing index numbers depending upon the seriousness of the lesions formed, as follows:
The substances under examination were tested at concentrations of 5 and 2.5% by weight.

Proteus Vulc. ATCC 881 = test: M.I.C. in vitro, gram- Proteus Vulc. (Table 1); assay type: cell-based
Experimental: as §1, §2, §3

In the case of `CCCCCCCCCCCCCCCC[n+]1ccccc1` [Cetyl pyridine chloride, cetyl pyridine chloride, reference compound], the “animals alive on the 15th day” value (Pseudomonas Aeruginosa; 0.25% by weight) is reported as 1, the “animals dead on the 15th day” value (Pseudomonas Aeruginosa; 0.25% by weight) is reported as 9 and the “% survivors” value (Pseudomonas Aeruginosa; 0.25% by weight) is reported as 10%. The “animals alive on the 15th day” value (Pseudomonas Aeruginosa; 0.5% by weight) was 3, the “animals dead on the 15th day” value (Pseudomonas Aeruginosa; 0.5% by weight) was 7 and the “% survivors” value (Pseudomonas Aeruginosa; 0.5% by weight) was 30%. For the same molecule, the “animals alive on the 15th day” value (Pseudomonas Aeruginosa; 1% by weight) was 2, the “animals dead on the 15th day” value (Pseudomonas Aeruginosa; 1% by weight) was 8 and the “% survivors” value (Pseudomonas Aeruginosa; 1% by weight) was 20%. The “animals alive on the 15th day” value (Pseudomonas Aeruginosa; 2% by weight) was 4, the “animals dead on the 15th day” value (Pseudomonas Aeruginosa; 2% by weight) was 6 and the “% survivors” value (Pseudomonas Aeruginosa; 2% by weight) was 40%. The MIC (Staph.Aureus Tour; +10% serum) was 10 µg/mL, the MIC (Staph.Aureus Tour; without serum) was 0.1 µg/mL and the MIC (Pseudom.Aer. ATCC 1014; ATCC1014, +10% serum) was > 200 µg/mL. For the same molecule, the MIC (Pseudom.Aer. ATCC 1014; ATCC1014, without serum) was 200 µg/mL, the sterilization time ([1]; 0.1 g/l) was > 60 min and the sterilization time ([1]; 0.25 g/l) was > 60 min. For the same molecule, the sterilization time ([1]; 0.5 g/l) was > 60 min, the sterilization time ([1]; 1 g/l) was > 60 min and the sterilization time ([2]; 0.1 g/l) was 7.5 min. For the same molecule, the sterilization time ([2]; 0.25 g/l) was 2.5 min, the sterilization time ([2]; 0.5 g/l) was 1 min and the sterilization time ([2]; 1 g/l) was 1 min. For the same molecule, the sterilization time ([3]; 0.1 g/l) was 60 min, the sterilization time ([3]; 0.25 g/l) was 60 min and the sterilization time ([3]; 0.5 g/l) was 30 min. It also gave a sterilization time ([3]; 1 g/l) of 5 min, an MIC (Diplococcus Pneum. ISM; +10% serum) of 10 µg/mL and an MIC (Diplococcus Pneum. ISM; without serum) of 1 µg/mL. For the same molecule, the sterilization time ([4]; 0.1 g/l) was 60 min, the sterilization time ([4]; 0.25 g/l) was 10 min and the sterilization time ([4]; 0.5 g/l) was 10 min. For the same molecule, the sterilization time ([4]; 1 g/l) was 10 min, the MIC (Esch. Coli. SKF 12140; +10% serum) was > 100 µg/mL and the MIC (Esch. Coli. SKF 12140; without serum) was 5 µg/mL. The sterilization time ([5]; 0.1 g/l) was 5 min, the sterilization time ([5]; 0.25 g/l) was 2.5 min and the sterilization time ([5]; 0.5 g/l) was 1 min. For the same molecule, the sterilization time ([5]; 1 g/l) was 1 min, the MIC ([6]; +10% serum) was 5 µg/mL and the MIC ([6]; without serum) was 0.5 µg/mL. For the same molecule, the “% of healing (100-A.D.I. %)” value (Candida albicans; 3% by weight) was 15.97%, the “A.D.I. (compared with controls)” value (Candida albicans; 3% by weight) was 84.03% and the “no. of animals surviving” value (Candida albicans; 3% by weight) was 6. For the same molecule, the “no. of animals surviving” value (Candida albicans; 5% by weight) was 2, the “death of treated animals” value (Candida albicans; highest dose, before the end of the experiment) was 75% and the mortality (Candida albicans; lower dose) was 25%. The LD50 at 336 h [7] was 275 mg/kg, the MIC (Klens. Pneum. ISM; +10% serum) was > 100 µg/mL and the MIC (Klens. Pneum. ISM; without serum) was 5 µg/mL. The “A.D.I. (% of control group)” value ([8]; 2.5% by weight) was 81.27%, the “healing % (100-A.D.I. %)” value ([8]; 2.5% by weight) was 18.73% and the “A.D.I. (% of control group)” value ([8]; 5% by weight) was 49.81%. The “healing % (100-A.D.I. %)” value ([8]; 5% by weight) was 50.19%, the “evaluation of seriousness of infection (A.D.I.)” value ([8]; 5% by weight, average index) was 1.33 and the MIC (Proteus Vulc. ATCC 881; +10% serum) was > 100 µg/mL. For the same molecule, the MIC (Proteus Vulc. ATCC 881; without serum) was 20 µg/mL.
